Tests used:
[1] = tested on: full thickness dermal wounds; assay: Healing of full thickness dermal wounds with AIII (Example 3); assay type: in vivo, Sprague Dawley rats; settings: 2×2 cm wounds; 3 μg and 10 μg dosages; FIG. 8
From the text: Twelve week old male Sprague Dawley rats were obtained from Simonsen Laboratories (Gilroy, Calif.). On the date of surgery, rats received intramuscular ketamine/rompum anesthesia prior to preparation for surgery. The rats were shaved and scrubbed with betadine. Four 2×2 cm full thickness dermal wounds were created on the dorsal surface of the rat. Following excision of the skin, the size of the wound was outlined on a glass slide to establish the baseline wound size. The medicament was administered in 100 μl of a solution comprising 10% HYDRON, 1% polyethylene glycol (MW 400) and 60% ethanol. Test materials were administered in a randomized fashion. AIII was evaluated at 3 and 10 μg/wound. Controls were treated with vehicle only. After administration of the materials, the rats were bandaged and allowed to recover from anesthesia. At days 2, 5, 6, 8 and 10 the area of the skin wounds were measured under methoxyflurane anesthesia. The area of the wound was determined by: (1) tracing the wound shape onto graph paper (1×1 mm squares); (2) cutting out the shape; (3) weighing the paper and comparing the weight with a 2×2 cm paper cutout; and (4) counting the number of squares.

[2] = tested on: aminopeptidase; settings: reported in literature; cited from earlier work
[3] = tested on: rat carotid artery; settings: cited from earlier work; for neointimal formation: similar model, Janiak et al. 1992, CGP 42112 infused perivascularly 14 days, losartan low doses
[4] = tested on: full thickness dermal wounds; assay: Wound closure by analogs of AII and AIII, Table 4 (Example 7); assay type: in vivo, Sprague Dawley rats; settings: percentage of vehicle-treated control wound, method of Example 6 (100 μg/wound, days 0-4)
From the text: Female Sprague Dawley rats weighing 175-200 grams were obtained from Simonsen Laboratories (Gilroy, Calif.). On the day of surgery, rats received intramuscular ketamine/rompum anesthesia prior to preparation for surgery. The rats were shaved and scrubbed with betadine. Two 1.5×1.5 cm full thickness dermal wounds were created on the dorsal surface of each rat. Following excision of the skin, the size of the wound was outlined on a glass slide to establish the baseline wound size. The medicament was administered in 100 μl of 10% low viscosity carboxymethyl cellulose (Sigma). The p-NH2 -Phe6-AII test material was administered in a randomized fashion with all materials being tested at 100 μg/wound. Control wounds were treated with vehicle only. After administration of the materials, the rats were bandaged and allowed to recovery from anesthesia. The rats were treated with an additional 100 μg of peptide formulation on days 1-4 after surgery. On days 2, 4, 7 and 9 the area of the skin wounds were measured under methoxyflurane anesthesia. The area of the wound was determined by: (1) tracing the wound shape onto graph paper (1×1 mm squares); (2) cutting out the shape; (3) weighing the paper and comparing the weight with a 1.5×1.5 cm paper cutout; and (4) counting the number of squares on the graph paper. In addition, on days 2, 4 and 7 the area of granulation tissue was similarly determined.
Analogs of AII and AIII having the structures disclosed in Table 4 were prepared using an automated peptide synthesizer and methods familiar to those having ordinary skill in the art. Each of the analogs was tested for its ability to accelerate wound healing essentially according to the method of Example 6. Results of procedures used to determine the extent of wound closure at days 4 and 9 measured as a percentage of a vehicle-treated control wound are also presented in Table 4. Since all of the analogs were not tested during the same experimental procedure, AII was included as a positive control for each group of peptides tested. As designated below, peptide analogs are identified as analogs of AII or AIII having amino acid substitutions at positions indicated by superscripts. Thus, for example, Gly^4 -AIII is the designation for an AIII analog having a Gly residue substituted at position 4 of AIII. Results from procedures using analogs that were tested as a group are grouped together in the following Table.

[5] = cited from earlier work
[6] = intracerebroventricular infusion at concentrations 1,000 times higher than that of AII; cited from earlier work

Molecule: CC[C@H](C)[C@H](NC(=O)[C@H](Cc1ccc(O)cc1)NC(=O)[C@@H](NC(=O)[C@@H](N)CCCNC(=N)N)C(C)C)C(=O)N[C@@H](Cc1c[nH]cn1)C(=O)N1CCC[C@H]1C(=O)N[C@@H](Cc1ccccc1)C(=O)O [AIII, Arg-Val-Tyr-Ile-His-Pro-Phe]
- wound closure relative to vehicle-treated control [1]: substantially accelerated

Molecule: CC[C@H](C)[C@H](NC(=O)[C@H](Cc1ccc(O)cc1)NC(=O)[C@@H](NC(=O)[C@H](CCCNC(=N)N)NC(=O)CNC)C(C)C)C(=O)N[C@@H](Cc1cnc[nH]1)C(=O)N1CCC[C@H]1C(=O)N[C@@H](Cc1ccccc1)C(=O)O [Analog 4, Sar-Arg-Val-Tyr-Ile-His-Pro-Phe]
- cleavage by aminopeptidase [2]: resistant to cleavage by aminopeptidase

Molecule: Cc1cc(Cn2cnc3c2C[C@@H](C(=O)O)N(C(=O)C(c2ccccc2)c2ccccc2)C3)ccc1N(C)C [PD 123319]
- reduction of intimal hyperplasia ([3]; Pratt et al. 1992): 73%

Molecule: CCCCc1nc(Cl)c(CO)n1Cc1ccc(-c2ccccc2-c2nn[nH]n2)cc1 [losartan]
- decrease of intimal area ([3]; Pratt et al. 1992): 95%
- neointimal formation, higher doses ([3]; other studies, losartan at higher doses): effective
- neointimal formation [3]: ineffective

Molecule: Asp-Arg-Val-Tyr(PO3)2 -Ile-His-Pro-Phe [[Tyr(PO3)2]^4 -AII]
- extent of wound closure, % Control (Day 4) [4]: 81.3%
- extent of wound closure, % Control (Day 9) [4]: 61.9%

Molecule: Asp-Arg-Val-Tyr-Ile-His-Pro (DRVYIHP; printed: Asp-Arg-Val-Tyr-Ile-His-Pro) [AII(1-7)]
- amount needed for pressor response comparable to AII ([5]; Benter et al. 1993): about 10,000 times
- dose effective on blood pressure relative to the dose of AII ([5]; depending on model and route of administration): 10,000-100,000 times

Molecule: CGP 42112
- neointimal formation [3]: prevented neointimal formation

Molecule: Ile-His-Pro-Phe (IHPF; printed: Ile-His-Pro-Phe) [AII(5-8)]
- effect on blood pressure [6]: minimal effect on blood pressure

Molecule: homoSer^4 -AII [GSD41B]
- extent of wound closure, % Control (Day 4) [4]: 77.6%
- extent of wound closure, % Control (Day 9) [4]: 55.8%

From patent US6110895A, “Method of promoting healing in skin grafts” (University of Southern California, priority 1997, dated 2000)
